Some test systems named below: A549 NSCLC; DU-145 prostate; MALME-3M melanoma; MDA-MB-231 breast; OVCAR-4 ovarian; RPMI-8226 leukemia; SF-268 CNS; SF-295 CNS; SNB-19 CNS; U251 CNS.
Common to all, as to experiment: DTP human tumour cell line panel, 48 h

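Each compound was tested at five concentrations against cells in 96-well plates for 48 hours. The concentration for 50% growth inhibition is given as GI50. The concentration for full growth arrest is given as TGI.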

Broadly, the TGI is the concentration at which net growth stops. Lower therefore signals more potent growth arrest. In general, GI50 refers to the concentration at which growth is held to half of that of the control.

For the compound `S=c1[nH]c2ccc(I)cc2c(=S)n1Cc1ccccc1`, the TGI in the experiment on A549 NSCLC is above 100 µM; with DU-145 prostate, 11.9 µM; with MALME-3M melanoma, 33.6 µM; in the experiment on MDA-MB-231 breast it was 20.4 µM; with OVCAR-4 ovarian, above 100 µM; in the experiment on RPMI-8226 leukemia it was 12.1 µM. The TGI is 25.3 µM in the experiment on SF-268 CNS, 11.5 µM with SF-295 CNS, 48.6 µM with SNB-19 CNS and 12.9 µM in the experiment with U251 CNS.

Regarding `N#CC(C#N)=C1C(=O)NC(N)=C1C#N`, the TGI in the experiment with A549 NSCLC, with DU-145 prostate, with MALME-3M melanoma, in the experiment with MDA-MB-231 breast, with OVCAR-4 ovarian and in the experiment with RPMI-8226 leukemia was above 100 µM in each case. The total growth inhibition concentration (TGI) in the experiment on SF-268 CNS, in the experiment with SF-295 CNS, in the experiment with SNB-19 CNS and in the experiment with U251 CNS was above 100 µM each time.

As to `COc1ccc(N2NC(c3ccccc3)(c3ccccc3)C(C)C2=O)cc1` (configuration not stated), the TGI with A549 NSCLC, in the experiment with DU-145 prostate, in the experiment on MALME-3M melanoma, in the experiment with MDA-MB-231 breast, in the experiment on OVCAR-4 ovarian and with RPMI-8226 leukemia was above 100 µM throughout. The TGI in the experiment on SF-268 CNS, in the experiment on SF-295 CNS, in the experiment with SNB-19 CNS and in the experiment on U251 CNS was above 100 µM each time.

For the compound `CCCCCCCCCCCCCC(=O)N(CCCCCCCCC)CC(O)C(O)C(OC1OC(CO)C(O)C(O)C1O)C(O)CO` (configuration not stated), the TGI in the experiment with A549 NSCLC turned out to be 50.5 µM; with DU-145 prostate, 30.6 µM; in the experiment with MALME-3M melanoma it was 35.7 µM; in the experiment on MDA-MB-231 breast it was 37.2 µM; in the experiment on OVCAR-4 ovarian it was 46.6 µM; in the experiment on RPMI-8226 leukemia, 52.1 µM. Also, the TGI in the experiment on SF-268 CNS came to 39.4 µM; with SF-295 CNS it was 41.2 µM; in the experiment with SNB-19 CNS, 44 µM; in the experiment on U251 CNS, 38.6 µM.

On to `CCOc1ccc2c(c1)c(=O)c1c(NCCN(CC)CC)ccc3nnn2c31`, for which the TGI with A549 NSCLC was above 55.5 µM; in the experiment with DU-145 prostate, 54.4 µM; in the experiment on MALME-3M melanoma it was 33.8 µM; in the experiment on MDA-MB-231 breast, 58.5 µM; with OVCAR-4 ovarian it was 26.3 µM; in the experiment with RPMI-8226 leukemia, above 65.1 µM. Also, the TGI in the experiment with SF-268 CNS was above 80.2 µM; in the experiment on SF-295 CNS, above 56.4 µM; in the experiment on SNB-19 CNS it was above 100 µM; with U251 CNS, above 58.2 µM.

Take `CCOC(=O)/C=C(\C(=O)OCC)n1ccc(=O)[nH]c1=O`: the TGI with A549 NSCLC was above 84.5 µM; in the experiment on DU-145 prostate, above 76.9 µM; with MALME-3M melanoma, 24.2 µM; with MDA-MB-231 breast, 32.6 µM; in the experiment on OVCAR-4 ovarian, above 52.3 µM; in the experiment with RPMI-8226 leukemia, 34.4 µM. The TGI in the experiment with SF-268 CNS is 42 µM; in the experiment on SF-295 CNS it was above 100 µM; in the experiment with SNB-19 CNS, above 100 µM; in the experiment on U251 CNS it was 32.6 µM.

As for `OC1C[C@H](c2ccccc2)C2(C(O)c3ccccc3C2O)[C@@H](c2ccccc2)C1` (some centres not stated), the TGI with A549 NSCLC, in the experiment on DU-145 prostate, with MALME-3M melanoma, with MDA-MB-231 breast, with OVCAR-4 ovarian and in the experiment with RPMI-8226 leukemia was above 100 µM throughout. In addition, the TGI in the experiment with SF-268 CNS, with SF-295 CNS, in the experiment on SNB-19 CNS and with U251 CNS was above 100 µM each time.

As to `Fc1cc(-c2cc(-c3ccc4c(c3)OCO4)n[nH]2)c(Cl)cc1Cl`, the TGI in the experiment on A549 NSCLC was 7.86 µM; in the experiment with DU-145 prostate, 13 µM; in the experiment with MALME-3M melanoma, 24.8 µM; with MDA-MB-231 breast, 4.94 µM; in the experiment on OVCAR-4 ovarian, 4.49 µM; in the experiment with RPMI-8226 leukemia, above 46.4 µM. Further, the TGI in the experiment with SF-268 CNS is 9.7 µM; with SF-295 CNS, 9.4 µM; in the experiment with SNB-19 CNS, 12.9 µM; with U251 CNS it was 3.63 µM.

`C=C1C(=O)OC2CC3(C)OC3CC/C(C)=C/C(OC(C)=O)C12` (configuration not stated): the TGI in the experiment on A549 NSCLC turned out to be 33.7 µM; in the experiment on DU-145 prostate, 28.4 µM; in the experiment on MALME-3M melanoma, 5.9 µM; with MDA-MB-231 breast, 24.8 µM; in the experiment with OVCAR-4 ovarian, 16.1 µM; in the experiment with RPMI-8226 leukemia, 14.3 µM. For the same compound, the TGI in the experiment on SF-268 CNS was found to be 34.8 µM; in the experiment on SF-295 CNS, 27.4 µM; in the experiment on SNB-19 CNS, 31 µM; in the experiment with U251 CNS it was 33.5 µM.

Turning to `[N-]=[N+]=Nc1c([N+](=O)[O-])c(=O)n2c3c(cccc13)CCC2`, the TGI was above 84.5 µM with A549 NSCLC; 38.7 µM in the experiment with DU-145 prostate; 4.27 µM in the experiment on MALME-3M melanoma; 25.9 µM in the experiment with MDA-MB-231 breast; 27 µM in the experiment on OVCAR-4 ovarian; 11.5 µM with RPMI-8226 leukemia. Further, the TGI was 21.3 µM with SF-268 CNS, above 100 µM in the experiment with SF-295 CNS, above 100 µM with SNB-19 CNS and 34.7 µM in the experiment on U251 CNS.

Turning to `CC(C)(C)[Si](C)(C)OCC1OC(n2cnc3c(=O)[nH]c(N)nc32)C(O[Si](C)(C)C(C)(C)C)C1O[Si](C)(C)C(C)(C)C` (configuration not stated), the concentration for total growth inhibition (TGI) in the experiment on A549 NSCLC was 7.61 µM; with DU-145 prostate, 12.2 µM; in the experiment on MALME-3M melanoma it was 4.02 µM; in the experiment on MDA-MB-231 breast, 10.5 µM; in the experiment on OVCAR-4 ovarian, 3.65 µM; in the experiment with RPMI-8226 leukemia, 3.46 µM. In addition, the TGI turned out to be 7.16 µM with SF-268 CNS, 12 µM in the experiment with SF-295 CNS, 6.14 µM in the experiment on SNB-19 CNS and 3.71 µM in the experiment with U251 CNS.

Consider `CCN1CCC(O)(/C=C/c2ccc(OC)cc2)C(C(=O)/C=C/c2ccc(OC)cc2)C1` (configuration not stated), for which the TGI in the experiment with A549 NSCLC was determined as 34 µM; with DU-145 prostate it was 22.8 µM; in the experiment on MALME-3M melanoma it was 32.8 µM; in the experiment on MDA-MB-231 breast, 17.5 µM; in the experiment on OVCAR-4 ovarian it was 26.7 µM; in the experiment on RPMI-8226 leukemia, 44.8 µM. Further, the TGI in the experiment on SF-268 CNS turned out to be 28.8 µM; with SF-295 CNS, 29.2 µM; with SNB-19 CNS, 29.9 µM; in the experiment on U251 CNS, 19.7 µM.

Consider `c1ccc(CN2CCN3CCN(CC2)CCN(Cc2ccccc2)CC3)cc1`, for which the TGI in the experiment on A549 NSCLC is above 56.1 µM; in the experiment on DU-145 prostate it was 29.6 µM; with MALME-3M melanoma, 8.01 µM; in the experiment on MDA-MB-231 breast, 18.4 µM; in the experiment with OVCAR-4 ovarian it was 20.3 µM; in the experiment on RPMI-8226 leukemia, 9.83 µM. The TGI in the experiment with SF-268 CNS is 24.7 µM; in the experiment on SF-295 CNS, above 55.2 µM; in the experiment on SNB-19 CNS it was 18.7 µM; in the experiment on U251 CNS it was 15.8 µM.

On to `Cc1ccc(NC(=O)CSC(N)=O)cc1C`, for which the TGI in the experiment with A549 NSCLC, in the experiment on DU-145 prostate, with MALME-3M melanoma, in the experiment with MDA-MB-231 breast, in the experiment with OVCAR-4 ovarian and in the experiment on RPMI-8226 leukemia was above 100 µM in each case. Moreover, the TGI with SF-268 CNS, with SF-295 CNS, in the experiment with SNB-19 CNS and with U251 CNS was above 100 µM in each case.

Consider `CN(C)CCCNCc1cccc2ccccc12`, for which the TGI in the experiment with A549 NSCLC, with DU-145 prostate, in the experiment on MALME-3M melanoma, with MDA-MB-231 breast, in the experiment with OVCAR-4 ovarian and in the experiment with RPMI-8226 leukemia was above 100 µM in each case. The TGI in the experiment with SF-268 CNS, with SF-295 CNS, in the experiment with SNB-19 CNS and in the experiment with U251 CNS was above 100 µM in each case.

For the compound `COC(=O)c1c(O)ccc2c1c1c(n2Cc2ccccc2)C(=O)c2ccccc2C1`, the TGI in the experiment on A549 NSCLC is above 100 µM; in the experiment with DU-145 prostate, above 100 µM; in the experiment on MALME-3M melanoma, above 100 µM; in the experiment on MDA-MB-231 breast, above 100 µM; in the experiment with OVCAR-4 ovarian, 70.4 µM; in the experiment with RPMI-8226 leukemia, 32.6 µM. For the same compound, the TGI with SF-268 CNS, in the experiment with SF-295 CNS, with SNB-19 CNS and with U251 CNS was above 100 µM throughout.

As to `CN(C)/N=N/c1nc[nH]c1C(N)=O`, the GI50 in the experiment with A549 NSCLC is above 147 µM; in the experiment with DU-145 prostate, 51.2 µM; with MALME-3M melanoma, 243 µM; in the experiment on OVCAR-4 ovarian, 40.1 µM; with RPMI-8226 leukemia, 6.81 µM; in the experiment on SF-268 CNS, 54.8 µM. The GI50 in the experiment with SF-295 CNS is 44 µM; in the experiment on SNB-19 CNS, above 85.3 µM; in the experiment on U251 CNS, 71.5 µM. The TGI in the experiment with DU-145 prostate is above 1000 µM; in the experiment on MALME-3M melanoma it was above 1000 µM; with MDA-MB-231 breast, above 1000 µM; in the experiment with OVCAR-4 ovarian it was above 1000 µM; with SF-268 CNS, above 791 µM; in the experiment on SF-295 CNS, above 1000 µM. Moreover, the TGI in the experiment with SNB-19 CNS and in the experiment on U251 CNS was above 1000 µM throughout.

With `C=C(C)CNC(=S)N(N)c1ccc2ccccc2c1`, the TGI with A549 NSCLC, with DU-145 prostate, in the experiment with MALME-3M melanoma, in the experiment on MDA-MB-231 breast, in the experiment on OVCAR-4 ovarian and with RPMI-8226 leukemia was above 100 µM each time. For the same compound, the TGI with SF-268 CNS, with SF-295 CNS, in the experiment on SNB-19 CNS and in the experiment on U251 CNS was above 100 µM in each case.

As for `C[C@H]1COC2=C1C(=O)C(=O)c1c2ccc2c1CCCC2(C)C`, the TGI in the experiment on A549 NSCLC is 4.55 µM; in the experiment on DU-145 prostate it was 2.08 µM; in the experiment with MALME-3M melanoma, 2.07 µM; in the experiment with MDA-MB-231 breast, above 100 µM; in the experiment with OVCAR-4 ovarian, above 100 µM; in the experiment on RPMI-8226 leukemia, 71.2 µM. Moreover, the TGI with SF-268 CNS is 44.4 µM; in the experiment on SF-295 CNS, 3.73 µM; in the experiment on SNB-19 CNS it was 66.4 µM; in the experiment on U251 CNS, 27.4 µM.

With `O=C(O)C(=O)/C=C(\O)c1ccc(Br)cc1`, the TGI in the experiment with A549 NSCLC, with DU-145 prostate, in the experiment with MALME-3M melanoma, with MDA-MB-231 breast, in the experiment with OVCAR-4 ovarian and in the experiment on RPMI-8226 leukemia was above 100 µM throughout. Besides, the TGI in the experiment on SF-268 CNS, in the experiment on SF-295 CNS, in the experiment with SNB-19 CNS and with U251 CNS was above 100 µM each time.

Values taken from PubChem BioAssay (NCI).
